Article PMC2213500 (The Journal of Experimental Medicine, 2000)

Legend:
wtDR1 = wtDR1 (Homo sapiens, UniProt P01903+P01911, A100R/D57E/F55L/F60I/F76Y/I96L/L162R/M171V/P40L/Q125E/R42F/V115G/Y59C); format: binding
[1] = target: soluble wild-type HLA-DR1 (empty, no added peptide) (human); test: intrinsic tryptophan fluorescence

soluble HLA-DM, sequence (P28067 27-233): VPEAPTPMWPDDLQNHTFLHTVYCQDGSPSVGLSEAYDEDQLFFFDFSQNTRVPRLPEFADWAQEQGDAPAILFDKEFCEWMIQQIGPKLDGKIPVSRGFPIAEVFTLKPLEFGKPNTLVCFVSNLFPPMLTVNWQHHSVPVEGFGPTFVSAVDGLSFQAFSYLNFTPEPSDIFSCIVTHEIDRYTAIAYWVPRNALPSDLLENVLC
soluble HLA-DM, sequence (P28068 19-218): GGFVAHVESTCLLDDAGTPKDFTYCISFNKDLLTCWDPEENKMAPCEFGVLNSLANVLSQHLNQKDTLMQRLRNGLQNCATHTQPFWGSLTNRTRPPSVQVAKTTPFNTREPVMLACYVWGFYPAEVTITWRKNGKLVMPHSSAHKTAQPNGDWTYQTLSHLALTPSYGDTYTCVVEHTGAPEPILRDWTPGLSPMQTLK

Row | Substance | DR1 binding of control peptide (wtDR1) | increase of tryptophan fluorescence on mixing [1] [%]
1 | CLSPFPFDL | non–DR1-binding | –
2 | soluble HLA-DM (from UniProt P28067;P28068) (complex) | – | 10 to 12
